Results on 13 compounds are retold here after patent US8343973B2, “Phenoxymethyl heterocyclic compounds” (EnVivo Pharmaceuticals, Inc., priority 2009, dated 2013).

One assay concerns the target Human PDE10A1 (Homo sapiens, UniProt Q9Y233). As to the kind of experiment: hPDE10A1 enzyme inhibition ([3H]-cAMP hydrolysis, scintillation). The following applies: Human PDE10A1, [3H]-cAMP substrate; read-out: hPDE10A1 IC50 Band. The class given is biochemical. As to the method: hPDE10A1 Enzyme Activity: 50 μl samples of serially diluted Human PDE10A1 enzyme were incubated with 50 μl of [^3H]-cAMP for 20 minutes (at 37° C.). Reactions were carried out in Greiner 96 deep well 1 ml master-block. The enzyme was diluted in 20 mM Tris HCl pH7.4 and [^3H]-cAMP was diluted in 10 mM MgCl2, 40 mM Tris.HCl pH 7.4. The reaction was terminated by denaturing the PDE enzyme (at 70° C.) after which [^3H]-5′-AMP was converted to [^3H]-adenosine by adding 25 μl snake venom nucleotidase and incubating for 10 minutes (at 37° C.). Adenosine, being neutral, was separated from charged cAMP or AMP by the addition of 200 μl Dowex resin. Samples were shaken for 20 minutes then centrifuged for 3 minutes at 2,500 r.p.m. 50 μl of supernatant was removed and added to 200 μl of MicroScint-20 in white plates (Greiner 96-well Optiplate) and shaken for 30 minutes before reading on Perkin Elmer TopCount Scintillation Counter.
hPDE10A1 Enzyme Inhibition: To check inhibition profile 11 μl of serially diluted inhibitor was added to 50 μl of [^3H]-cAMP and 50 ul of diluted Human PDE10A1 and assay was carried out as in the enzyme activity assay. Data was analysed using Prism software (GraphPad Inc).

The conditions of assay [1]: rats; cited from earlier work.

Human PDE10A1, sequence (Q9Y233 1-779 isoform Q9Y233-1): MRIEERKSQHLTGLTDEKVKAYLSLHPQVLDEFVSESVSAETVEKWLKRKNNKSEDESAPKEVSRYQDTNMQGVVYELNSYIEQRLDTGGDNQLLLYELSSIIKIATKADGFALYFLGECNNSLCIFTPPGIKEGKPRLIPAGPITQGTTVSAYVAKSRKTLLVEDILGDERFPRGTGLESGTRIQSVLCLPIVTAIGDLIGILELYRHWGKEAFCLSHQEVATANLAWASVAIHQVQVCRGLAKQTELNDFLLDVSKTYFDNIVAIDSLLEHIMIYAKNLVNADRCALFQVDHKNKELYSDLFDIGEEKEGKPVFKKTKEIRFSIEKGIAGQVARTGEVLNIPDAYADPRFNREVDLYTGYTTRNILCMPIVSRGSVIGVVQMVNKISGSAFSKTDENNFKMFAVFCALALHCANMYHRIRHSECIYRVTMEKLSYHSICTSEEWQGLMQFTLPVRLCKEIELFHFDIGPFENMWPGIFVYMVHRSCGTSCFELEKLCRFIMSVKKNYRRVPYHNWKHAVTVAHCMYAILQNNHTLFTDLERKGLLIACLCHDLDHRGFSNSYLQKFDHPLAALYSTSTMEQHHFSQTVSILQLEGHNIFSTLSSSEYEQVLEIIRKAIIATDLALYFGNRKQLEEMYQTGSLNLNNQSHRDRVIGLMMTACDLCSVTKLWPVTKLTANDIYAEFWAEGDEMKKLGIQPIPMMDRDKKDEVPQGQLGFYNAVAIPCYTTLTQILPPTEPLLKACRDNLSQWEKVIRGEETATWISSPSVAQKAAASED

For `COc1ccc(C2=C(c3ccc(OCc4cn5cc(Cl)ccc5n4)cc3)C(=O)C(C)(C)O2)cc1` [4-(4-((6-Chloroimidazo[1,2-a]pyridin-2-yl)methoxy)phenyl)-5-(4-methoxyphenyl)-2,2-dimethylfuran-3(2H)-one], the IC50 at Human PDE10A1 is no more than 10 nM.

As to `COc1ccc(C2=C(c3ccc(OCc4cn5ccccc5n4)cc3)C(=O)C(C)(C)O2)cc1` [4-(4-(imidazo[1,2-a]pyridin-2-ylmethoxy)phenyl)-5-(4-methoxyphenyl)-2,2-dimethylfuran-3(2H)-one], the IC50 on Human PDE10A1 was no more than 10 nM. Same read-out and setting: the same measure for `COc1ccc(C2=C(c3ccc(OCc4cn5nc(Cl)ccc5n4)cc3)C(=O)C(C)(C)O2)cc1` [4-(4-((6-chloroimidazo[1,2-b]pyridazin-2-yl)methoxy)phenyl)-5-(4-methoxyphenyl)-2,2-dimethylfuran-3(2H)-one]: 10 to 50 nM.

For the compound `COc1ccc(C2=C(c3ccc(OCc4ncc(C)cc4C)cc3)C(=O)C(C)(C)O2)cc1` [4-(4-((3,5-dimethylpyridin-2-yl)methoxy)phenyl)-5-(4-methoxyphenyl)-2,2-dimethylfuran-3(2H)-one], the IC50 on Human PDE10A1 was no more than 10 nM. Turning to `COc1ccc(Cc2nccc3cc(OC)c(OC)cc23)cc1OC` [papaverine], in assay [1], the apomorphine induced stereotypes entry is given as “reduces”, the haloperidol induced catalepsy entry was “increases” and the “rat brain dopamine levels” value was “reduces”. Regarding `COc1ccc(C2=C(c3ccc(OCc4ccc5nccn5n4)cc3)C(=O)C(C)(C)O2)cc1` [4-(4-(imidazo[1,2-b]pyridazin-6-ylmethoxy)phenyl)-5-(4-methoxyphenyl)-2,2-dimethylfuran-3(2H)-one], the IC50 on Human PDE10A1 is 10 to 50 nM. Consider `Cc1ccc(COc2ccc(C3=C(c4ccc(C#N)cc4)OC(C)(C)C3=O)cc2)nc1` [4-(5,5-dimethyl-3-(4-((5-methylpyridin-2-yl)methoxy)phenyl)-4-oxo-4,5-dihydrofuran-2-yl)benzonitrile], for which, on Human PDE10A1, the concentration for half-maximal inhibition (IC50) was no more than 10 nM. Turning to `CC1(C)OC(c2ccc(C#N)cc2)=C(c2ccc(OCc3cn4ccccc4n3)cc2)C1=O` [4-(3-(4-(imidazo[1,2-a]pyridin-2-ylmethoxy)phenyl)-5,5-dimethyl-4-oxo-4,5-dihydrofuran-2-yl)benzonitrile], the IC50 on Human PDE10A1 is no more than 10 nM. On the same count and under the same terms, to `COc1ccc(C2=C(c3ccc(OCc4nc5ccccn5c4C)cc3)C(=O)C(C)(C)O2)cc1` [5-(4-Methoxyphenyl)-2,2-dimethyl-4-(4-((3-methylimidazo[1,2-a]pyridin-2-yl)methoxy)phenyl)furan-3(2H)-one] belongs 10 to 50 nM. Same read-out and setting: the same measure for `COc1ccc(C2=C(c3ccc(OCc4cn5ncccc5n4)cc3)C(=O)C(C)(C)O2)cc1` [4-(4-(imidazo[1,2-b]pyridazin-2-ylmethoxy)phenyl)-5-(4-methoxyphenyl)-2,2-dimethylfuran-3(2H)-one]: no more than 10 nM; for `COc1ccc(C2=C(c3ccc(OCc4ccc(C)cn4)cc3)C(=O)C(C)(C)O2)cc1` [5-(4-methoxyphenyl)-2,2-dimethyl-4-(4-((5-methylpyridin-2-yl)methoxy)phenyl)furan-3(2H)-one]: no more than 10 nM; for `COc1ccc(C2=C(c3ccc(OCc4nc5ccccn5c4Cl)cc3)C(=O)C(C)(C)O2)cc1` [4-(4-((3-chloroimidazo[1,2-a]pyridin-2-yl)methoxy)phenyl)-5-(4-methoxyphenyl)-2,2-dimethylfuran-3(2H)-one]: no more than 10 nM. The same measure, in the same setting: the same measure for `COc1ccc(C2=C(c3ccc(OCc4cn5c(C)cccc5n4)cc3)C(=O)C(C)(C)O2)cc1` [5-(4-Methoxyphenyl)-2,2-dimethyl-4-(4-((5-methylimidazo[1,2-a]pyridin-2-yl)methoxy)phenyl)furan-3(2H)-one]: no more than 10 nM.

One may read the IC50 as the point on the concentration scale where inhibition reaches its midpoint.
